The supplement of paper PMC4862054

The molecules below were run on MDA-MB-453 (assay: normalised response (% of control), CellTiter-Glo; higher = more viable cells (100 = DMSO, 0 = benzethonium chloride kill control)). Conditions: incubation time: 72 h.
Experimental: (§1)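 DSRT, 72 h incubation, CellTox Green / CellTiter-Glo readout. Signal is normalised to DMSO and benzethonium chloride controls. Value is the normalised response at dose 3.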
`CCc1cncnc1N1CCN(Cc2nc3ccc(C(F)(F)F)cc3[nH]2)CC1` (100 nM) gave a normalised response of 106%. Work on `COc1cc2nccc(Oc3ccc(NC(=O)Nc4cc(C)on4)c(Cl)c3)c2cc1OC` [Tivozanib] (100 nM) yielded a normalised response of 87.7%. `O=C(O)C(=O)O.[NH-][C@@H]1CCCC[C@H]1[NH-].[Pt+2]` [Oxaliplatin] (100 nM) gave a normalised response of 87.5%. For `CC1=C(/C=C/C(C)=C/C=C/C(C)=C/C(=O)O)C(C)(C)CCC1` [Tretinoin] (100 nM), the normalised response was 108%. Molecule `Oc1ncc(N(CCCl)CCCl)c(O)n1` [Uracil mustard] (100 nM) has a normalised response of 95.5%. With `COc1cc2c(NC3CCN(C(C)C)CC3)nc(C3CCCCC3)nc2cc1OCCCN1CCCC1` [UNC0638] (100 nM) the normalised response was 92.7%. `COc1cc([C@@H]2c3cc4c(cc3[C@@H](O[C@@H]3O[C@@H]5CO[C@@H](c6cccs6)O[C@H]5[C@H](O)[C@H]3O)[C@H]3COC(=O)[C@H]23)OCO4)cc(OC)c1O` [Teniposide] (100 nM) showed a normalised response of 118%. For `CC[C@H](C)C(=O)O[C@H]1C[C@H](O)C=C2C=C[C@H](C)[C@H](CC[C@@H](O)C[C@@H](O)CC(=O)O)[C@H]21` [Pravastatin] (100 nM), the normalised response was 85.9%. Work on `C[C@H]1C[C@@H]2[C@H]([C@@H](O)C[C@@]3(C)[C@H]2CC[C@]3(O)C(=O)CO)[C@@]2(C)C=CC(=O)C=C12` [Methylprednisolone] (100 nM) yielded a normalised response of 99.9%.

Each molecule was assayed on MDA-MB-436 in the same assay as above. Conditions: incubation time: 72 h.
Experimental: as §1
`CCc1cncnc1N1CCN(Cc2nc3ccc(C(F)(F)F)cc3[nH]2)CC1` (100 nM) showed a normalised response of 108%. For `COc1cc2nccc(Oc3ccc(NC(=O)Nc4cc(C)on4)c(Cl)c3)c2cc1OC` [Tivozanib] (100 nM), the normalised response was 91.2%. With `O=C(O)C(=O)O.[NH-][C@@H]1CCCC[C@H]1[NH-].[Pt+2]` [Oxaliplatin] (100 nM) the normalised response was 103%. With `CC1=C(/C=C/C(C)=C/C=C/C(C)=C/C(=O)O)C(C)(C)CCC1` [Tretinoin] (100 nM) the normalised response was 100%. `Oc1ncc(N(CCCl)CCCl)c(O)n1` [Uracil mustard] (100 nM) was tested, and the normalised response was 98.9%. With `COc1cc2c(NC3CCN(C(C)C)CC3)nc(C3CCCCC3)nc2cc1OCCCN1CCCC1` [UNC0638] (100 nM) the normalised response was 102%. Molecule `COc1cc([C@@H]2c3cc4c(cc3[C@@H](O[C@@H]3O[C@@H]5CO[C@@H](c6cccs6)O[C@H]5[C@H](O)[C@H]3O)[C@H]3COC(=O)[C@H]23)OCO4)cc(OC)c1O` [Teniposide] (100 nM) has a normalised response of 62.6%. With `CC[C@H](C)C(=O)O[C@H]1C[C@H](O)C=C2C=C[C@H](C)[C@H](CC[C@@H](O)C[C@@H](O)CC(=O)O)[C@H]21` [Pravastatin] (100 nM) the normalised response was 13.5%. Work on `C[C@H]1C[C@@H]2[C@H]([C@@H](O)C[C@@]3(C)[C@H]2CC[C@]3(O)C(=O)CO)[C@@]2(C)C=CC(=O)C=C12` [Methylprednisolone] (100 nM) yielded a normalised response of 104%.

Each molecule was assayed on SK-BR-3 in the same assay as above. Conditions: incubation time: 72 h.
Experimental: as §1
For `CCc1cncnc1N1CCN(Cc2nc3ccc(C(F)(F)F)cc3[nH]2)CC1` (100 nM), the normalised response was 107%. For `COc1cc2nccc(Oc3ccc(NC(=O)Nc4cc(C)on4)c(Cl)c3)c2cc1OC` [Tivozanib] (100 nM), the normalised response was 83.3%. For `O=C(O)C(=O)O.[NH-][C@@H]1CCCC[C@H]1[NH-].[Pt+2]` [Oxaliplatin] (100 nM), the normalised response was 84.8%. Work on `CC1=C(/C=C/C(C)=C/C=C/C(C)=C/C(=O)O)C(C)(C)CCC1` [Tretinoin] (100 nM) yielded a normalised response of 79.8%. In the case of `Oc1ncc(N(CCCl)CCCl)c(O)n1` [Uracil mustard] (100 nM), the normalised response is reported as 101%. With `COc1cc2c(NC3CCN(C(C)C)CC3)nc(C3CCCCC3)nc2cc1OCCCN1CCCC1` [UNC0638] (100 nM) the normalised response was 80.1%. For `COc1cc([C@@H]2c3cc4c(cc3[C@@H](O[C@@H]3O[C@@H]5CO[C@@H](c6cccs6)O[C@H]5[C@H](O)[C@H]3O)[C@H]3COC(=O)[C@H]23)OCO4)cc(OC)c1O` [Teniposide] (100 nM), the normalised response was 58.5%. `CC[C@H](C)C(=O)O[C@H]1C[C@H](O)C=C2C=C[C@H](C)[C@H](CC[C@@H](O)C[C@@H](O)CC(=O)O)[C@H]21` [Pravastatin] (100 nM) showed a normalised response of 93.6%. Molecule `C[C@H]1C[C@@H]2[C@H]([C@@H](O)C[C@@]3(C)[C@H]2CC[C@]3(O)C(=O)CO)[C@@]2(C)C=CC(=O)C=C12` [Methylprednisolone] (100 nM) has a normalised response of 104%.

What follows are molecules tested on CAL-85-1 in the same assay as above. Conditions: incubation time: 72 h.
Experimental: as §1
`CCc1cncnc1N1CCN(Cc2nc3ccc(C(F)(F)F)cc3[nH]2)CC1` (100 nM) was tested, and the normalised response was 95.8%. `COc1cc2nccc(Oc3ccc(NC(=O)Nc4cc(C)on4)c(Cl)c3)c2cc1OC` [Tivozanib] (100 nM) gave a normalised response of 99.5%. `O=C(O)C(=O)O.[NH-][C@@H]1CCCC[C@H]1[NH-].[Pt+2]` [Oxaliplatin] (100 nM) showed a normalised response of 96.9%. With `CC1=C(/C=C/C(C)=C/C=C/C(C)=C/C(=O)O)C(C)(C)CCC1` [Tretinoin] (100 nM) the normalised response was 97.5%. `Oc1ncc(N(CCCl)CCCl)c(O)n1` [Uracil mustard] (100 nM) was tested, and the normalised response was 96.7%. Molecule `COc1cc2c(NC3CCN(C(C)C)CC3)nc(C3CCCCC3)nc2cc1OCCCN1CCCC1` [UNC0638] (100 nM) has a normalised response of 98.8%. Work on `COc1cc([C@@H]2c3cc4c(cc3[C@@H](O[C@@H]3O[C@@H]5CO[C@@H](c6cccs6)O[C@H]5[C@H](O)[C@H]3O)[C@H]3COC(=O)[C@H]23)OCO4)cc(OC)c1O` [Teniposide] (100 nM) yielded a normalised response of 91.6%. `CC[C@H](C)C(=O)O[C@H]1C[C@H](O)C=C2C=C[C@H](C)[C@H](CC[C@@H](O)C[C@@H](O)CC(=O)O)[C@H]21` [Pravastatin] (100 nM) showed a normalised response of 99%. For `C[C@H]1C[C@@H]2[C@H]([C@@H](O)C[C@@]3(C)[C@H]2CC[C@]3(O)C(=O)CO)[C@@]2(C)C=CC(=O)C=C12` [Methylprednisolone] (100 nM), the normalised response was 115%.

What follows are molecules tested on BT-474 in the same assay as above. Conditions: incubation time: 72 h.
Experimental: as §1
`CCc1cncnc1N1CCN(Cc2nc3ccc(C(F)(F)F)cc3[nH]2)CC1` (100 nM) was tested, and the normalised response was 105%. `COc1cc2nccc(Oc3ccc(NC(=O)Nc4cc(C)on4)c(Cl)c3)c2cc1OC` [Tivozanib] (100 nM) showed a normalised response of 93%. `O=C(O)C(=O)O.[NH-][C@@H]1CCCC[C@H]1[NH-].[Pt+2]` [Oxaliplatin] (100 nM) was tested, and the normalised response was 99%.
